“Also recorded” adds a separate entry of the source. Like-named read-outs stand apart in the source and are kept apart here.
Key:
[1] = tested on: isolated trachea preparation of the guinea pig; experiment: Relaxant activity on isolated tracheal muscle in vitro
Method: This activity was studied on an isolated trachea preparation of the guinea pig (chain of tracheal rings, according to CASTILLO and BEER. Journ. Pharmacol. Exp. Ther. 1947 90 104-109), kept alive in a KREBS solution. The effect of cumulative doses on the pressure of the preparation was recorded.
The activity of the substance was expressed by the value of the molar CD50 (decontracting concentration 50=concentration giving 50% of maximum relaxation), of which the negative log. is the value pD2, and by the intrinsic activity corresponding to maximum effect.
These values were determined in parallel for the compound A and Salbutamol, on 6 preparations for each.

histamine bronchospasm [2] = experiment: Bronchodilator activity in vivo, anesthetized guinea pig, intravenous (inhibition of histamine bronchospasm, KONZETT); conditions: for % inhibition in time: i.v.
Method: (§1) 1.2.1 In the anesthesized guinea pig (method of KONZETT. Arch. Exp. Pathol. Pharmakol. 1940 195 71-74)
(§2) A bronchospasm was caused by intravenous histamine injection. The bronchodilator activity was shown by partial or total inhibition of this spasm.
The product studied was administered intravenously or intraduodenaly and histamine injected then at different times to follow the delay in appearance and the duration of the inhibiting effect of the treatment. […]

[3] = tested on: isolated right atrium preparation of the guinea pig; experiment: Activity on the heart rate in vitro, isolated right atrium; conditions: for Heart rate, maximum: basal 209 (Compound A), 202 (Salbutamol); for Tachycardiac activity in vitro (comparison with Salbutamol): sulphate, dihydrate
Method: This action was studied on an isolated right atrium preparation of the guinea pig kept alive in a RINGER solution. The effect of cumulative doses on the heart rate was recorded. The results below are the averages of 6 preparations of the compound A, of 4 for Salbutamol

[4] = tested on: heart rate and mean aortic pressure; experiment: Heart rate and mean aortic pressure of the anesthetised dog, intraduodenal; type: in vivo; conditions: for Heart rate, maximum cumulative effect / Average aortic pressure, maximum cumulative effect: intraduodenal
Method: 3.1.1. Activity on the heart rate and on the mean aortic pressure of the anesthetisied dog
The activity of the compound A and of Salbutamol was studied on 2 batches of 3 dogs per product: one in spontaneous respiration, the other in artificial respiration; the two substances were administered intraduodenally at 3 doses: 0.008-0.025 and 0.08 mg/kg.

histamine bronchospasm [5] = experiment: Bronchodilator activity in vivo, anesthetized dog, intraduodenal (intratracheal pressure, histamine bronchospasm)
Method: 1.2.2. In the anesthesized dog (recording of the intratracheal pressure)
A bronchospasm was caused by intravenous injection and histamine. The bronchodilator activity was shown by partial or total inhibition of this spasm.
The products studied were administered intraduodenally and the histamine injected then at various times to follow the effect of the treatment.
The results borne in the table below are the averages of the values obtained in 3 animals for each product.

guinea pig trachea = experiment: β-stimulant specificity: guinea pig trachea before and after propranolol; conditions: for EC50: Cavia porcellus, 6 preparations
Excerpt: respiratory (guinea pig trachea, in vitro)
cardiovascular (heart rate of the dog, in vivo) by the antagonistic effect of a β-blocking product.

histamine bronchospasm [6] = experiment: Bronchodilator activity in vivo, anesthetized guinea pig, intraduodenal (inhibition of histamine bronchospasm, KONZETT)
Method: as §1, §2
The product studied was administered intravenously or intraduodenaly and histamine injected then at different times to follow the delay in appearance and the duration of the inhibiting effect of the treatment.
The results below are the averages of the values obtained in 10 animals.

rat uterus preparation = experiment: Uterus relaxing activity in vitro; conditions: for EC50: Rattus norvegicus, 7 preparations, read-out: CE50 (effective concentration 50, inhibiting by 50% the control contraction)
Excerpt: This activity was investigated on a rat uterus preparation, put into estrus by cutaneous injection of oestradiol benzoate. The uterine horns were kept alive in a RINGER-LOCKE solution, modified by GADDUM and VOGT.
Their activity is expressed by the value of the molar CE50 (effective concentration 50, inhibiting by 50% the control contraction induced by the contracting agent).
Each CE50 indicated below was obtained from the results of 7 preparations.

COc1cc(C(O)CNC(C)CCn2cnc3ccccc32)ccc1O (centres unmarked) [Compound A, 1-[1-benzimidazolyl]-N-[2-(4-hydroxy-3-methoxy-phenyl)2-hydroxy-ethyl]3-amino butane basic sulphate, dihydrate]
Maximum response (decontraction) ([1]; 6 preparations): 390 mg | Emax ([1]; Cavia porcellus, 6 preparations, Salbutamol 1.00, read-out: Intrinsic activity): 109% | EC50 ([1]; Cavia porcellus, 6 preparations, read-out: CD50 (decontracting concentration 50, concentration giving 50% of maximum relaxation)): 71 nM | EC50 ([1]; Cavia porcellus, negative log of molar CD50, 6 preparations, read-out: pD2 (converted)): 70.8 nM | Activity on the tracheal muscle (comparison with Salbutamol) ([1]; in vitro, in words): very close to that of Salbutamol | % inhibition in time (histamine bronchospasm [2]; 0.08 μg base/kg, 1 min): 1% | % inhibition in time (histamine bronchospasm [2]; 0.08 μg base/kg, 5 min): 1% | % inhibition in time (histamine bronchospasm [2]; 0.08 μg base/kg, 10 min): 0% | % inhibition in time (histamine bronchospasm [2]; 0.08 μg base/kg, 15 min): 0% | % inhibition in time (histamine bronchospasm [2]; 0.25 μg base/kg, 1 min): 9% | % inhibition in time (histamine bronchospasm [2]; 0.25 μg base/kg, 5 min): 1% | % inhibition in time (histamine bronchospasm [2]; 0.25 μg base/kg, 10 min): 0% | % inhibition in time (histamine bronchospasm [2]; 0.25 μg base/kg, 15 min): 0% | % inhibition in time (histamine bronchospasm [2]; 0.8 μg base/kg, 1 min): 36% | % inhibition in time (histamine bronchospasm [2]; 0.8 μg base/kg, 5 min): 3% | % inhibition in time (histamine bronchospasm [2]; 0.8 μg base/kg, 10 min): 2% | % inhibition in time (histamine bronchospasm [2]; 0.8 μg base/kg, 15 min): 3% | % inhibition in time (histamine bronchospasm [2]; 2.5 μg base/kg, 1 min): 66% | % inhibition in time (histamine bronchospasm [2]; 2.5 μg base/kg, 5 min): 13% | % inhibition in time (histamine bronchospasm [2]; 2.5 μg base/kg, 10 min): 8% | % inhibition in time (histamine bronchospasm [2]; 2.5 μg base/kg, 15 min): 8% | % inhibition in time (histamine bronchospasm [2]; 8 μg base/kg, 1 min): 73% | % inhibition in time (histamine bronchospasm [2]; 8 μg base/kg, 5 min): 17% | % inhibition in time (histamine bronchospasm [2]; 8 μg base/kg, 10 min): 12% | % inhibition in time (histamine bronchospasm [2]; 8 μg base/kg, 15 min): 8% | % inhibition in time (histamine bronchospasm [2]; 25 μg base/kg, 1 min): 92% | % inhibition in time (histamine bronchospasm [2]; 25 μg base/kg, 5 min): 52% | % inhibition in time (histamine bronchospasm [2]; 25 μg base/kg, 10 min): 38% | % inhibition in time (histamine bronchospasm [2]; 25 μg base/kg, 15 min): 28% | % inhibition in time (histamine bronchospasm [2]; 84 μg base/kg, 1 min): 92% | % inhibition in time (histamine bronchospasm [2]; 84 μg base/kg, 5 min): 80% | % inhibition in time (histamine bronchospasm [2]; 84 μg base/kg, 10 min): 70% | % inhibition in time (histamine bronchospasm [2]; 84 μg base/kg, 15 min): 63% | % inhibition in time (histamine bronchospasm [2]; 84 μg base/kg, 30 min): 51% | % inhibition in time (histamine bronchospasm [2]; 84 μg base/kg, 45 min): 36% | % inhibition in time (histamine bronchospasm [2]; 84 μg base/kg, 60 min): 21% | Bronchodilator activity (comparison with Salbutamol) (histamine bronchospasm [2]; intravenous, in words): activity of the same order, although very slightly less for compound A at low doses; at the highest dose, the effect is intense and lasting, the compound A had an activity at least equal to that of Salbutamol | Heart rate, increase ([3]; 1 × 10^-5 mol (maxi for Salbutamol)): +47 beats per min. | Heart rate, maximum ([3]; 1 × 10^-5 mol): 256 beats per min. | Heart rate, increase ([3]; 1 × 10^-6 mol (maxi for Compound A)): +49 beats per min. | Heart rate, maximum ([3]; 1 × 10^-6 mol): 258 beats per min. | Heart rate, increase ([3]; 1 × 10^-7 mol): +40 beats per min. | Heart rate, maximum ([3]; 1 × 10^-7 mol): 249 beats per min. | Emax ([3]; Cavia porcellus, same preparation, at the start of the test, read-out: Maximum as % of the maximum tachycardia obtained with isoprenaline): < 50% | CE50 and pD2 on heart rate (not calculable) ([3]; in vitro, in words): this low activity prevents calculation of a CE50 and a pD2 | Tachycardiac activity in vitro (comparison with Salbutamol) ([3]; in words, listed as Compound a): only a partial effect, very much less than that of Salbutamol | Tachycardiac activity in vitro (comparison with Salbutamol) ([3]; in words): increases the rate but the maximum effect is very much less than that of Salbutamol | Tachycardiac and hypotensive effect (comparison with Salbutamol) ([4]; anesthetised dog, in words): a little less tachycardiac and hypotensive than Salbutamol | Heart rate, maximum cumulative effect ([4]; artificial respiration, 10 min after 0.08 mg/kg): +20 cpm | Average aortic pressure, maximum cumulative effect ([4]; artificial respiration, 75 min after 0.08 mg/kg): -26 mmHg | Heart rate, maximum cumulative effect ([4]; spontaneous respiration, 15 min after 0.08 mg/kg): +17 cpm | Average aortic pressure, maximum cumulative effect ([4]; spontaneous respiration, 20 min after 0.08 mg/kg): -15 mmHg | % inhibition in time (histamine bronchospasm [5]; 0.025 mg base/kg, 5 min): 48% | % inhibition in time (histamine bronchospasm [5]; 0.025 mg base/kg, 20 min): 60% | % inhibition in time (histamine bronchospasm [5]; 0.025 mg base/kg, 35 min): 67% | % inhibition in time (histamine bronchospasm [5]; 0.025 mg base/kg, 60 min): 63% | % inhibition in time (histamine bronchospasm [5]; 0.025 mg base/kg, 90 min): 62% | % inhibition in time (histamine bronchospasm [5]; 0.08 mg base/kg, 5 min): 70% | % inhibition in time (histamine bronchospasm [5]; 0.08 mg base/kg, 20 min): 78% | % inhibition in time (histamine bronchospasm [5]; 0.08 mg base/kg, 35 min): 76% | % inhibition in time (histamine bronchospasm [5]; 0.08 mg base/kg, 60 min): 70% | % inhibition in time (histamine bronchospasm [5]; 0.08 mg base/kg, 90 min): 60% | Bronchodilator activity (comparison, in words) (histamine bronchospasm [5]; sulphate, dihydrate): acted more rapidly (inhibition already strong in 5 minutes); also recorded: activity was higher than or equal to that of Salbutamol, is characterised by its great speed of action | EC50 (guinea pig trachea; read-out: CD50 before propranolol): 71 nM | EC50 (guinea pig trachea; propranolol 1.7×10^-8 mol, read-out: CD50 after propranolol): 250 nM | Ratio of CD50 (guinea pig trachea; after / before propranolol): 3.5 | % inhibition in time (histamine bronchospasm [6]; 0.25 mg base/kg, 1 min): 11% | % inhibition in time (histamine bronchospasm [6]; 0.25 mg base/kg, 5 min): 27% | % inhibition in time (histamine bronchospasm [6]; 0.25 mg base/kg, 15 min): 26% | % inhibition in time (histamine bronchospasm [6]; 0.25 mg base/kg, 30 min): 26% | % inhibition in time (histamine bronchospasm [6]; 0.25 mg base/kg, 45 min): 19% | % inhibition in time (histamine bronchospasm [6]; 0.25 mg base/kg, 60 min): 13% | % inhibition in time (histamine bronchospasm [6]; 0.25 mg base/kg, 90 min): 9% | % inhibition in time (histamine bronchospasm [6]; 0.8 mg base/kg, 1 min): 16% | % inhibition in time (histamine bronchospasm [6]; 0.8 mg base/kg, 5 min): 60% | % inhibition in time (histamine bronchospasm [6]; 0.8 mg base/kg, 15 min): 61% | % inhibition in time (histamine bronchospasm [6]; 0.8 mg base/kg, 30 min): 44% | % inhibition in time (histamine bronchospasm [6]; 0.8 mg base/kg, 45 min): 29% | % inhibition in time (histamine bronchospasm [6]; 0.8 mg base/kg, 60 min): 23% | % inhibition in time (histamine bronchospasm [6]; 0.8 mg base/kg, 90 min): 21% | % inhibition in time (histamine bronchospasm [6]; 2.5 mg base/kg, 1 min): 20% | % inhibition in time (histamine bronchospasm [6]; 2.5 mg base/kg, 5 min): 73% | % inhibition in time (histamine bronchospasm [6]; 2.5 mg base/kg, 15 min): 65% | % inhibition in time (histamine bronchospasm [6]; 2.5 mg base/kg, 30 min): 53% | % inhibition in time (histamine bronchospasm [6]; 2.5 mg base/kg, 45 min): 44% | % inhibition in time (histamine bronchospasm [6]; 2.5 mg base/kg, 60 min): 39% | % inhibition in time (histamine bronchospasm [6]; 2.5 mg base/kg, 90 min): 34% | % inhibition in time (histamine bronchospasm [6]; 2.5 mg base/kg, 120 min): 30% | % inhibition in time (histamine bronchospasm [6]; 8 mg base/kg, 1 min): 51% | % inhibition in time (histamine bronchospasm [6]; 8 mg base/kg, 5 min): 82% | % inhibition in time (histamine bronchospasm [6]; 8 mg base/kg, 15 min): 82% | % inhibition in time (histamine bronchospasm [6]; 8 mg base/kg, 30 min): 71% | % inhibition in time (histamine bronchospasm [6]; 8 mg base/kg, 45 min): 67% | % inhibition in time (histamine bronchospasm [6]; 8 mg base/kg, 60 min): 65% | % inhibition in time (histamine bronchospasm [6]; 8 mg base/kg, 90 min): 59% | % inhibition in time (histamine bronchospasm [6]; 8 mg base/kg, 120 min (n = 9 compound A, n = 8 Salbutamol)): 55% | minimal effective dose (histamine bronchospasm [6]; Cavia porcellus, read-out: Threshold active dose): 0.25 mg/kg | Bronchodilator activity (comparison, in words) (histamine bronchospasm [6]; sulphate, dihydrate): more lasting at 8 mg/kg; also recorded: more active than Salbutamol | EC50 (rat uterus preparation; contracting agent acetylcholine): 0.67 nM | EC50 (rat uterus preparation; contracting agent serotonine): 2.4 nM | Activity on the uterus (comparison with Salbutamol) (rat uterus preparation; in vitro, in words): of the same order of that of Salbutamol

— US4513001A, “β-Adrenergic 1-[1-benzimidazolyl]-N-[2-(4-hydroxy-3-methoxy-phenyl)-2-hydroxy-ethyl]- 3-amino butane and salts and hydrates thereof” (priority 1982, dated 1985)
